Our source for the IC50 values is patent US6855714B2, “1-alkyl-2-aryl-benzimidazole derivatives, their use for the production of pharmaceutical agents as well as pharmaceutical preparations that contain these derivatives” (Schering Aktiengesellschaft, priority 2001, dated 2005).

The subject of this experiment is primary rat microglia. The experiment can be described thus: Inhibition of microglia activation (Aβ peptide stimulation, MTS reduction). The experiment is classed as cell-based. To be noted: Aβ-activated primary rat microglia, MTS reduction on day 7, compound added on day 5; read-out: IC50 in the Microglia Inhibition Test. The procedure: For in vitro production of Aβ-activated microglia, primary rat microglia are incubated with synthetic Aβ peptide:
To simulate Aβ deposits, synthetic Aβ peptide is dried on 96-hole tissue culture plates. A peptide stock solution of 2 mg/ml of H2O 1:50 in H2O, is diluted in this. To coat the 96-hole plates, 30 μL of this dilute peptide solution/hole is used and dried overnight at room temperature.
Primary rat microglia are harvested from mixed glia cultures, which were obtained from P3 rat brains. For the production of mixed glia cultures, the brains are removed from 3-day-old rats and meninges are removed therefrom. The isolation of cells is achieved by trypsinization (0.25% trypsin solution, 15 minutes 37° C.)). After undigested tissue fragments are separated with the aid of a 40 µm nylon mesh, the isolated cells are centrifuged off (800 rpm/10 minutes). The cell pellet is resuspended in culture medium and moved into 100 ml tissue culture flasks (1 brain/tissue culture flask). […]
To quantify the microglia reactivity, the metabolic activity is measured on cultivation day 7 via the reduction of MTS (3-(4,5-dimethylthiazol-2-yl)-5-(3carboxymethoxyphenyl)-2-(sulfophenyl)-2H-tetrazolium), Owen's reagent, Baltrop, J. A. et al., Bioorg. & Med. Chem. Lett., 1, 6111 (1991)). […]

For the compound `COCCCn1c(-c2ccccc2)nc2ccc(OCCCCCC(=O)OC)cc21` [6-[(5-(Methoxycarbonyl)pentyl)oxy]-1-(3-methoxy-n-propyl)-2-phenyl-benzimidazole], the IC50 worked out at 650 nM.

As for `COC(=O)CCCCCOc1ccc2nc(-c3ccc(OC)cc3)n(CCCN(C)C(C)=O)c2c1` [6-[(5-(Methoxycarbonyl)pentyl)oxy]-2-(4-methoxy-phenyl)-1-[3-(N-methyl-N-(methylcarbonyl)amino)propyl]-benzimidazole], the IC50 was found to be 390 nM.
